Source: ChEMBL document CHEMBL1201862, “PubChem BioAssay data set” (2004)
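Cultured in 96-well plates, cells were exposed to test compound for 48 hours across five concentrations. Abbreviation: GI50, concentration required for 50% inhibition of growth.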 Activity calls are given as the source filed them. No stated cut-off is given here; in the data, active = GI50 up to about 1.1 µM and inactive = higher.

Legend:
Assay in all cases: growth of human tumour cells (NCI), 48 h
Hs-578T = system: Hs-578T
RXF 631 = system: RXF 631
LXFL 529 = system: LXFL 529
SNB-78 = system: SNB-78
KM-20L2 = system: KM-20L2
HOP-18 = system: HOP-18
M19-MEL = system: M19-MEL
DMS-114 = system: DMS-114
XF498 = system: XF498

Structure (SMILES): Cc1ccc2c(c1C)C(=O)C1(Cc3cc4c(cc3C1=O)CCC4)C2 (stereo not given)
- GI50 (Hs-578T): > 100 µM (inactive)

Structure (SMILES): CNC(=S)/C(C#N)=C(\N)N1CCCC1
- GI50 (Hs-578T): > 100 µM (inactive)

Structure (SMILES): COc1ccc2c(c1)CCN1CCCc3ccccc3C21 (stereo not given)
- GI50 (Hs-578T): 42.1 µM (inactive)

Structure (SMILES): O=C(O/N=C1\CCCC\C1=C/c1ccccc1)c1ccc([N+](=O)[O-])cc1
- GI50 (RXF 631): > 100 µM (inactive)
- GI50 (LXFL 529): 54 µM (inactive)
- GI50 (SNB-78): > 100 µM (inactive)
- GI50 (KM-20L2): > 100 µM (inactive)
- GI50 (HOP-18): > 100 µM (inactive)
- GI50 (M19-MEL): > 100 µM (inactive)
- GI50 (DMS-114): 61.9 µM (inactive)

Structure (SMILES): CC(C)[Si](CC1=CCCCC12C(=O)N(COCC[Si](C)(C)C)c1ccccc12)(C(C)C)C(C)C (stereo not given)
- GI50 (Hs-578T): > 100 µM (inactive)

Structure (SMILES): N#CNC(=N)NC(=O)/C=C/C=C/c1ccc(Cl)cc1
- GI50 (LXFL 529): 47.4 µM (inactive)
- GI50 (SNB-78): 55.1 µM (inactive)
- GI50 (KM-20L2): > 100 µM (inactive)
- GI50 (HOP-18): > 100 µM (inactive)
- GI50 (M19-MEL): > 100 µM (inactive)
- GI50 (DMS-114): 84.5 µM (inactive)

Structure (SMILES): CC(NC(=O)N(C)C)NC(=O)N(C)C
- GI50 (Hs-578T): > 10 µM (inactive)

Structure (SMILES): CC(O)C1CC1(CO)CNc1cc(Cl)nc(N)n1 (stereo not given)
- GI50 (Hs-578T): > 100 µM (inactive)

Structure (SMILES): O=S(=O)(CC(O)C(Cl)(Cl)Cl)NNc1ccccc1 (stereo not given)
- GI50 (Hs-578T): > 100 µM (inactive)

Structure (SMILES): CCCCC1(O)CC2CC1C(C)C2(C)C (stereo not given)
- GI50 (Hs-578T): 84.5 µM (inactive)

Structure (SMILES): CCCNC1=C2C[C@@H](C)C[C@@H](OC)[C@@H](OC(=O)CCCN)[C@H](C)/C=C(\C)[C@@H](OC(N)=O)[C@H](OC)/C=C\C=C(/C)C(=O)NC(=CC1=O)C2=O
- GI50 (Hs-578T): 25.6 µM (inactive)

Structure (SMILES): CC(C)(CN1CCCCC1)C(=O)/C=C/c1ccccc1
- GI50 (RXF 631): 21.1 µM (inactive)
- GI50 (LXFL 529): 16.9 µM (inactive)
- GI50 (SNB-78): 22.5 µM (inactive)
- GI50 (KM-20L2): 10.3 µM (inactive)
- GI50 (XF498): 14.7 µM (inactive)
- GI50 (M19-MEL): 18.9 µM (inactive)
- GI50 (DMS-114): 14.4 µM (inactive)

Structure (SMILES): CCOc1ccc(NC(=O)C(=O)Nn2c(N)nnc2N)cc1
- GI50 (Hs-578T): > 100 µM (inactive)

Structure (SMILES): COc1ccc(-c2cc(-c3ccco3)c(C#N)c(=O)[nH]2)cc1
- GI50 (RXF 631): > 100 µM (inactive)
- GI50 (LXFL 529): 44 µM (inactive)
- GI50 (SNB-78): > 100 µM (inactive)
- GI50 (KM-20L2): > 100 µM (inactive)
- GI50 (HOP-18): 15.9 µM (inactive)
- GI50 (M19-MEL): 87.9 µM (inactive)
- GI50 (DMS-114): 79.6 µM (inactive)

Structure (SMILES): COC(=O)C1CCN(C(=O)OC(C)(C)C)CC1
- GI50 (Hs-578T): > 100 µM (inactive)

Structure (SMILES): CCCCCCCCCCc1c2nc(c(CCCCCCCCCC)c3ccc([nH]3)c(CCCCCCCCCC)c3nc(c(CCCCCCCCCC)c4ccc1[nH]4)C=C3)C=C2
- GI50 (Hs-578T): 30 µM (inactive)

Structure (SMILES): CCOC(=O)c1nc2ccc(C(F)(F)F)cc2nc1Oc1cc(OC)c(OC)c(OC)c1
- GI50 (Hs-578T): 16.8 µM (inactive)

Structure (SMILES): O=c1oc2cc(/N=C/c3ccccc3Cl)ccc2c2ccccc12
- GI50 (Hs-578T): > 100 µM (inactive)

Structure (SMILES): CC(C)(C)c1ccc(O)c(Br)c1
- GI50 (Hs-578T): > 100 µM (inactive)

Structure (SMILES): CC(C)=CCC/C(C)=C/CC/C(C)=C/CCN(C)CCO
- GI50 (Hs-578T): 1.88 µM (inactive)

Structure (SMILES): O=c1oc2c/c(=C\c3ccccc3)c(=O)c3cccc1c3-2
- GI50 (Hs-578T): 14.8 µM (inactive)

Structure (SMILES): CN(C)CC(O)c1ccc(Cl)c2ccccc12 (stereo not given)
- GI50 (Hs-578T): 38.2 µM (inactive)

Structure (SMILES): O=C(C/C(CCC(=O)N(Cc1ccccc1)Cc1ccccc1)=N/Nc1ccc([N+](=O)[O-])cc1[N+](=O)[O-])c1ccccc1
- GI50 (LXFL 529): 25 µM (inactive)
- GI50 (SNB-78): > 100 µM (inactive)
- GI50 (KM-20L2): 33.3 µM (inactive)
- GI50 (HOP-18): > 100 µM (inactive)
- GI50 (XF498): > 100 µM (inactive)
- GI50 (M19-MEL): 68.4 µM (inactive)
- GI50 (DMS-114): > 100 µM (inactive)

Structure (SMILES): OCC1=CC(NC2CC(CO)C(O)C(O)C2O)C(O)C(O)C1O (stereo not given)
- GI50 (HOP-18): > 100 µM (inactive)
- GI50 (XF498): 64.9 µM (inactive)
- GI50 (M19-MEL): > 100 µM (inactive)
- GI50 (DMS-114): > 100 µM (inactive)

Structure (SMILES): Cc1cn(CCCCCCOC(=O)NC(CCCNC(N)=O)C(=O)O)c(=O)[nH]c1=O (stereo not given)
- GI50 (Hs-578T): > 100 µM (inactive)

Structure (SMILES): O=c1[nH]nc(Cc2ccccc2)n1/N=C\CC/C=N\n1c(Cc2ccccc2)n[nH]c1=O
- GI50 (Hs-578T): 20.2 µM (inactive)

Structure (SMILES): CC(=O)OCC1OC(n2cnc3c(I)nc(I)nc32)C(OC(C)=O)C1OC(C)=O (stereo not given)
- GI50 (RXF 631): 15.5 µM (inactive)
- GI50 (LXFL 529): 13.4 µM (inactive)
- GI50 (KM-20L2): 17.6 µM (inactive)
- GI50 (XF498): 20.9 µM (inactive)
- GI50 (M19-MEL): 3.66 µM (inactive)
- GI50 (DMS-114): 4.21 µM (inactive)

Structure (SMILES): Cc1ccc(/N=N/c2c(O)ccc3cc(S(=O)(=O)O)ccc23)c(C)c1
- GI50 (Hs-578T): > 100 µM (inactive)

Structure (SMILES): OCCO[P+]1(OCCO)n2c3ccc2C(c2ccccc2)=C2C=CC(=N2)C(c2ccccc2)=c2ccc(n21)=C(c1ccccc1)C1=NC(=C3c2ccccc2)C=C1
- GI50 (Hs-578T): 0.0237 µM (active)

Structure (SMILES): COC1=CC(=O)[C@]2(C)[C@H](C1=O)C(C)[C@H]2c1ccccc1 (stereo not given in full)
- GI50 (RXF 631): > 100 µM (inactive)
- GI50 (LXFL 529): > 100 µM (inactive)
- GI50 (SNB-78): > 100 µM (inactive)
- GI50 (XF498): > 100 µM (inactive)
- GI50 (M19-MEL): > 100 µM (inactive)

Structure (SMILES): Cc1cc(-c2nc3cc(F)ccc3s2)ccc1N
- GI50 (Hs-578T): 26.5 µM (inactive)

Structure (SMILES): c1ccc([P+](c2ccccc2)(c2ccccc2)c2ccc([P+](c3ccccc3)(c3ccccc3)c3ccccc3)cc2)cc1
- GI50 (Hs-578T): 31.6 µM (inactive)

Structure (SMILES): CCOC(=O)c1c2c(n3ccccc13)C(=O)c1ccccc1C2=O
- GI50 (Hs-578T): 19.7 µM (inactive)

Structure (SMILES): COc1cc2c(c(OC)c1OC)-c1ccc(SC)c(=O)cc1[C@@H](OC(=O)c1ccncc1)CC2
- GI50 (Hs-578T): < 0.01 µM (active)

Structure (SMILES): O=C(C#Cc1cnc(O)nc1O)c1ccccc1Cl
- GI50 (SNB-78): 24.8 µM (inactive)
- GI50 (HOP-18): 20 µM (inactive)
- GI50 (DMS-114): 21.9 µM (inactive)

Structure (SMILES): CN(C)CCNc1ccc2nnn3c4ccc(O)cc4c(=O)c1c23
- GI50 (LXFL 529): 3.01 µM (inactive)
- GI50 (SNB-78): 12.7 µM (inactive)
- GI50 (KM-20L2): 7.82 µM (inactive)
- GI50 (HOP-18): 21.3 µM (inactive)
- GI50 (Hs-578T): 2.03 µM (inactive)
- GI50 (DMS-114): 5.79 µM (inactive)

Structure (SMILES): CC(C)=CCC[C@](C)(O)[C@H]1CC[C@]2(C)[C@@H]1[C@H](O)C[C@@H]1[C@@]3(C)CC[C@H](O[C@@H]4O[C@H](CO)[C@@H](O)[C@H](O)[C@H]4O)C(C)(C)[C@@H]3CC[C@]12C [GINSENOSIDE RH2]
- GI50 (Hs-578T): 21.9 µM (inactive)
